The structures appear in SMILES notation.

For eight compounds, IC50 results are on record in ChEMBL document CHEMBL2021822, “Acylated Gly-(2-cyano)pyrrolidines as inhibitors of fibroblast activation protein (FAP) and the issue of FAP/prolyl oligopeptidase (PREP)-selectivity” (Bioorg Med Chem Lett, 2012).

One assay has as its target T1, Prolyl endopeptidase (Homo sapiens, UniProt P48147).
T1 sequence (P48147 whole entry): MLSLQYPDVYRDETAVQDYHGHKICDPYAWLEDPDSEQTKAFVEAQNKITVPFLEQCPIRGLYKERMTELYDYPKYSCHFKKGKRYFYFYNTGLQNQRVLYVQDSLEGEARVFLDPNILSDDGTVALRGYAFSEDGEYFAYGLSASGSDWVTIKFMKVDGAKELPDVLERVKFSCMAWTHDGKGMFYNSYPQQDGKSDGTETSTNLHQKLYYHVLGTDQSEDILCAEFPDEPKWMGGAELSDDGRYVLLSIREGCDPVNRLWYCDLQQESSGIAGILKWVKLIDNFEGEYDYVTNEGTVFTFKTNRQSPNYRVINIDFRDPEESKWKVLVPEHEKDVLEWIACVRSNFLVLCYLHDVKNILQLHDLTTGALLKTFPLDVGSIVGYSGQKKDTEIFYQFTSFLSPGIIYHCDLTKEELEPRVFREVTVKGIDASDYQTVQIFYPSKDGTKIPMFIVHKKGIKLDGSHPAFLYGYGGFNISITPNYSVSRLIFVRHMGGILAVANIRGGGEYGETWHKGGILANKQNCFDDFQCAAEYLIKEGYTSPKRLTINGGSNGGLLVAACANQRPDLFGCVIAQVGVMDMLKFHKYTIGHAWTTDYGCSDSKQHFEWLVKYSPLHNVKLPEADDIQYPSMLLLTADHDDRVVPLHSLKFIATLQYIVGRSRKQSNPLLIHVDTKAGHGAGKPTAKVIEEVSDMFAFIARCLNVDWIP
Kind of assay: Inhibition of human recombinant PREP expressed in Escherichia coli assessed as pNA release from Z-Gly-Pro-p-nitroanilide pre-incubated with enzyme for 15 mins prior to substrate addition by […].

In another assay the target is Dipeptidyl peptidase 4 (Homo sapiens, UniProt P27487). Kind of assay: Inhibition of human seminal plasma DPP4 assessed as pNA release from Gly-Pro-p-nitroanilide substrate pre-incubated with enzyme for 15 min prior to substrate addition by fluorescence technique.
Another assay deals with Dipeptidyl peptidase 2 (Homo sapiens, UniProt Q9UHL4). Kind of assay: Inhibition of human seminal plasma DPP2 assessed as pNA release from Lys-Ala-p-nitroanilide substrate pre-incubated with enzyme for 15 min prior to substrate addition by […].
The target of the next assay is T2, Prolyl endopeptidase FAP (Mus musculus, UniProt P97321).
T2 sequence (P97321 whole entry): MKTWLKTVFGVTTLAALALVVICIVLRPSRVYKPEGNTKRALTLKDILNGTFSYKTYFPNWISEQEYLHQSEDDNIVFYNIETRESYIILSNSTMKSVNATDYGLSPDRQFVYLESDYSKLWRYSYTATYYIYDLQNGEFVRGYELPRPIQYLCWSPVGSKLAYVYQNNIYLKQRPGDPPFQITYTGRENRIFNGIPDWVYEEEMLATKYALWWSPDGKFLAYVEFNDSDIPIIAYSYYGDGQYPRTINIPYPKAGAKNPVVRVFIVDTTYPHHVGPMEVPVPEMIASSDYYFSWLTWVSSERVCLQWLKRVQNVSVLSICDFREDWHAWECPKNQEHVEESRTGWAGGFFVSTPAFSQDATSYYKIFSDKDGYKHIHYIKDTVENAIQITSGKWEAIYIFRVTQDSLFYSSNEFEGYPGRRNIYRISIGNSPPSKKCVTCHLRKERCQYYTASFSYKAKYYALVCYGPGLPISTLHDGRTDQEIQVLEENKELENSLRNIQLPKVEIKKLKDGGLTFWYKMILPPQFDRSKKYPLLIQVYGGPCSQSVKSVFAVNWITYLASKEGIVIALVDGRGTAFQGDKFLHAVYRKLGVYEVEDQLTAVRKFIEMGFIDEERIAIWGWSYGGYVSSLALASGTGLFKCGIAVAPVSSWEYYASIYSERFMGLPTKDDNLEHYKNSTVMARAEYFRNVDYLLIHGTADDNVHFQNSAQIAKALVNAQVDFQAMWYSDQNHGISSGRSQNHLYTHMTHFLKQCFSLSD
The experiment in a line: Inhibition of mouse recombinant FAP expressed in HEK293 cells assessed as pNA release from Ala-Pro-p-nitroanilide pre-incubated with enzyme for 15 mins prior to substrate addition by […]. Type of assay: cell-based.

The nature of assay [1]: Inhibition of bovine testes DPP9 assessed as pNA release from Ala-Pro-p-nitroanilide substrate pre-incubated with enzyme for 15 min prior to substrate addition by […]. On the set-up: species or system Bos taurus.

Chain of Dipeptidyl peptidase 4 (P27487 whole entry): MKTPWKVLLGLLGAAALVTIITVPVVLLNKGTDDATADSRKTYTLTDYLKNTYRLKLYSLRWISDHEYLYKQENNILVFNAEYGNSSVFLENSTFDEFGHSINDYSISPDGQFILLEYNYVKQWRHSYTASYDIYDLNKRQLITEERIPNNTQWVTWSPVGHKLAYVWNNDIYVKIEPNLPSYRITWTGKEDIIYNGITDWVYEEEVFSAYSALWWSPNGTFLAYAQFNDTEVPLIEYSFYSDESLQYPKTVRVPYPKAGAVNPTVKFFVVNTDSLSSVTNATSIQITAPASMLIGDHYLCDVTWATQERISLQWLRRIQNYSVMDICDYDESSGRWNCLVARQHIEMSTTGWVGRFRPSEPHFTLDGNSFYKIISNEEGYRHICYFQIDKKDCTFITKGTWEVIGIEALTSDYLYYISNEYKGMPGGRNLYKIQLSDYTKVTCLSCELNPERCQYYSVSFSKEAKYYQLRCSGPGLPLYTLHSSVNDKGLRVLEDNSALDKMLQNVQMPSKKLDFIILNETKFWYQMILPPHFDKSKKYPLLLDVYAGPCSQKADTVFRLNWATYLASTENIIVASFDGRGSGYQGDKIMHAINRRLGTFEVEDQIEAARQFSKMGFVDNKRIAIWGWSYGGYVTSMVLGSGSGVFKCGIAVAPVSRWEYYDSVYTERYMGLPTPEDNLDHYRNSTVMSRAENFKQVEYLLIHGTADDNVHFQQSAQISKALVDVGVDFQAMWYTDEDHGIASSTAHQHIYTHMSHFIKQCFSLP

In the case of `CC(C)(C)OC(=O)N1CCN(c2cn(CC(=O)NCC(=O)N3CCC[C@H]3C#N)nn2)CC1`, the IC50 (commonly the concentration that inhibits the measured activity by half) was above 100 µM at Prolyl endopeptidase; above 100 µM at Dipeptidyl peptidase 4; above 100 µM at Dipeptidyl peptidase 2; 2.7 µM on Prolyl endopeptidase FAP; above 100 µM in assay [1].
Turning to `N#C[C@@H]1CCCN1C(=O)CNC(=O)Cn1cc(-c2ccc(F)c(F)c2)nn1`, the IC50 at Prolyl endopeptidase is above 50 µM; on Dipeptidyl peptidase 4 it was above 100 µM; on Dipeptidyl peptidase 2, above 100 µM; at Prolyl endopeptidase FAP, 1.3 µM; in assay [1], 69 µM.
For `N#C[C@@H]1CC(F)(F)CN1C(=O)CNC(=O)c1ccccc1`, the IC50 at Prolyl endopeptidase was above 10 µM; on Dipeptidyl peptidase 4, above 100 µM; at Dipeptidyl peptidase 2, above 100 µM; on Prolyl endopeptidase FAP, 0.85 µM; in assay [1] it was above 10 µM.
Turning to `N#C[C@@H]1C[C@H](N=[N+]=[N-])CN1C(=O)CNC(=O)c1cccc2ccccc12`, the IC50 at Prolyl endopeptidase was above 100 µM; at Dipeptidyl peptidase 4 it was above 100 µM; on Dipeptidyl peptidase 2 it was above 100 µM; at Prolyl endopeptidase FAP, 4.1 µM; in assay [1] it was above 10 µM.
`CC1C[C@@H](C#N)N(C(=O)CNC(=O)c2ccccc2)C1` (stereo not given in full): the IC50 on Prolyl endopeptidase is above 100 µM; on Dipeptidyl peptidase 4, above 100 µM; at Dipeptidyl peptidase 2 it was above 100 µM; at Prolyl endopeptidase FAP it was above 100 µM; in assay [1] it was above 10 µM.
Consider `N#C[C@@H]1C[C@@H](N=[N+]=[N-])CN1C(=O)CNC(=O)c1cccc2ccccc12`, for which the IC50 is above 100 µM on Prolyl endopeptidase; above 100 µM at Dipeptidyl peptidase 4; above 100 µM at Dipeptidyl peptidase 2; above 100 µM on Prolyl endopeptidase FAP; above 10 µM in assay [1].
`COc1ccc(C(=O)NCC(=O)N2CCC[C@H]2C#N)cc1OC1CCCC1`: the IC50 on Prolyl endopeptidase was above 10 µM; on Dipeptidyl peptidase 4 it was above 100 µM; at Dipeptidyl peptidase 2, above 100 µM; at Prolyl endopeptidase FAP, 3.7 µM; in assay [1] it was above 100 µM.
As to `N#C[C@@H]1CCCCN1C(=O)CNC(=O)c1ccccc1`, the IC50 at Prolyl endopeptidase was above 100 µM; at Dipeptidyl peptidase 4, above 100 µM; on Dipeptidyl peptidase 2 it was 23.3 µM; at Prolyl endopeptidase FAP, above 100 µM; in assay [1], above 10 µM.
